Results taken from patent US9937250B2, “Immunogenic tumor associated stromal cell antigen peptides and methods of their use” (University of Pittsburgh—Of the Commonwealth System of …, priority 2011, dated 2018).

Tested on: CD8+ T cells from HLA-A2+ normal donors or HLA-A2+ melanoma patients
Test: In vitro sensitization of human CD8+ T cells with TASA peptide-pulsed autologous DC, IFN-γ ELISA against peptide-pulsed T2 cells
Format: cell-based
Procedure: The indicated peptides were pulsed onto autologous DC and used to prime and boost CD8^+ T cells isolated from the peripheral blood of eight normal HLA-A2^+ donors or ten HLA-A2^+ patients with melanoma. Seven days after the primary in vitro sensitization (IVS) (melanoma patients) or a secondary IVS boost (normal donors), T cells were analyzed for their reactivity against HLA-A2^+ T2 cells pulsed with the relevant peptide vs. the negative control HIV-nef190-198 peptide. After 24 hours of co-culture, cell-free supernatants were analyzed for levels of secreted IFN-γ using a commercial ELISA. Data are reported in Bar and Whisker plots, with p-values provided for paired pre- versus post-IVS data from normal donors and patients. In addition, p<0.05 was detected for MEL-Post versus ND-Post for the following peptides: DLK1 (309), NG2 (770), NG2 (2238), PDGFRβ (891) and RGS5 (5).
In vitro assessment of human CD8^+ T cell responses against TASA- or TAA-derived peptides. Peripheral blood mononuclear cells (PBMC) were obtained by venipuncture or leukapheresis from HLA-A2^+ normal donors or HLA-A2^+ melanoma patients with written consent under IRB-approved protocols (Table 3). CD8^+ T cells were then isolated by MACS (Miltenyi Biotec, Auburn, Calif.) and either not stimulated or stimulated with autologous, TASA peptide-pulsed DC as previously described (Tatsumi et al., Cancer Res., 63:4481-4489, 2003). Normal donor T cells were stimulated with TASA peptide-pulsed DC twice on a weekly schedule, with responder T cells harvested for analysis of their specificity 5 days after the booster stimulation (i.e. day 12 of T cell-DC co-culture). Melanoma patient CD8^+ T cells were analyzed after a single round of stimulation with TASA peptide-pulsed, autologous DC (i.e. day 5 of T cell-DC co-culture) as indicated. For DC-based stimulations, DC were pulsed with an equimolar (1 μM each) pool of the TASA peptides (Table 4) for 4 h at 37° C. at 5% CO2 tension. These antigen-loaded DC were then used to stimulate autologous CD8^+ T cells at a T cell-to-DC ratio of 10:1 to generate a bulk population of responder T cells. T cells were maintained in IMDM media supplemented with 10% human AB serum, 100 U/ml penicillin, […], 10 mM L-glutamine and MEM non-essential amino acids (all reagents from Invitrogen, except human AB serum that was purchased from Sigma-Aldrich, St. Louis, Mo.). Responder CD8^+ T cells were analyzed for reactivity against control (HLA-A2^+) T2 cells or T2 cells pulsed with individual TASA or TAA peptides (1 μM for 4 h at 37° C.) at a CD8^+ T cell-to-T2 cell ratio of 5:1 for 24 h. Harvested cell-free supernatants were consequently assessed for hIFN-γ content using a specific ELISA (BD Biosciences, San Diego, Calif.) with a lower detection limit of 4.7 pg/ml.
CD8^+ T cells from HLA-A2^+ normal donors or HLA-A2^+ melanoma patients recognize TASA-derived peptides in vitro. To assess whether the TASA-derived peptides identified in the HHD tumor model were also capable of being recognized by human CD8^+ T cells, IVS was performed using T cells isolated from the peripheral blood of HLA-A2^+ donors or HLA-A2^+ patients with melanoma. DC were pulsed with peptides derived from a given TASA for 4 h at 37° C., then washed and used as stimulator cells for autologous CD8^+ T cells. In cases where more than one peptide existed for a given protein, DC were pulsed with an equimolar (10 μM) mixture of each peptide. Two rounds of IVS using TASA for normal donors and a single-round of IVS using TASA for melanoma patients was applied. HLA-A2^+ normal donors (FIG. 4; Tables 4, 5A and 5B) and melanoma patients (FIG. 4; Tables 4, 5A and 5B) were each capable of recognizing many of the TASA-derived peptides.

Substance | Specific CD8+ T cell Production of IFN-γ in Response to TASA (donor Mel1, melanoma patient) | Specific CD8+ T cell Production of IFN-γ in Response to TASA (donor Mel2, melanoma patient) | Specific CD8+ T cell Production of IFN-γ in Response to TASA (donor Mel3, melanoma patient) | Specific CD8+ T cell Production of IFN-γ in Response to TASA (donor Mel4, melanoma patient) | Specific CD8+ T cell Production of IFN-γ in Response to TASA (donor Mel6, melanoma patient) | Specific CD8+ T cell Production of IFN-γ in Response to TASA (donor Mel9, melanoma patient) | Specific CD8+ T cell Production of IFN-γ in Response to TASA (donor ND3, normal donor) | Specific CD8+ T cell Production of IFN-γ in Response to TASA (donor ND5, normal donor) | Specific CD8+ T cell Production of IFN-γ in Response to TASA (donor Mel7, melanoma patient) | Specific CD8+ T cell Production of IFN-γ in Response to TASA (donor Mel8, melanoma patient) | Specific CD8+ T cell Production of IFN-γ in Response to TASA (donor ND1, normal donor) | Specific CD8+ T cell Production of IFN-γ in Response to TASA (donor ND2, normal donor)
EphA2: EphA2-derived peptide 883-891 pulsed onto DC or DC.IL12 (TLADFDPRV; listed as Homo sapiens) | + (Human responses were designated as + if T cell reactivity against T2 cells presenting the indicated peptide (IFN-γ ELISA) was >30 pg/ml and more than 2 fold higher than reactivity versus T2 cells pulsed with the negative control HIV-nef190-198 peptide) | + (Human responses were designated as + if T cell reactivity against T2 cells presenting the indicated peptide (IFN-γ ELISA) was >30 pg/ml and more than 2 fold higher than reactivity versus T2 cells pulsed with the negative control HIV-nef190-198 peptide) | + (Human responses were designated as + if T cell reactivity against T2 cells presenting the indicated peptide (IFN-γ ELISA) was >30 pg/ml and more than 2 fold higher than reactivity versus T2 cells pulsed with the negative control HIV-nef190-198 peptide) | + (Human responses were designated as + if T cell reactivity against T2 cells presenting the indicated peptide (IFN-γ ELISA) was >30 pg/ml and more than 2 fold higher than reactivity versus T2 cells pulsed with the negative control HIV-nef190-198 peptide) | + (Human responses were designated as + if T cell reactivity against T2 cells presenting the indicated peptide (IFN-γ ELISA) was >30 pg/ml and more than 2 fold higher than reactivity versus T2 cells pulsed with the negative control HIV-nef190-198 peptide) | + (Human responses were designated as + if T cell reactivity against T2 cells presenting the indicated peptide (IFN-γ ELISA) was >30 pg/ml and more than 2 fold higher than reactivity versus T2 cells pulsed with the negative control HIV-nef190-198 peptide) | + (Human responses were designated as + if T cell reactivity against T2 cells presenting the indicated peptide (IFN-γ ELISA) was >30 pg/ml and more than 2 fold higher than reactivity versus T2 cells pulsed with the negative control HIV-nef190-198 peptide) | + (Human responses were designated as + if T cell reactivity against T2 cells presenting the indicated peptide (IFN-γ ELISA) was >30 pg/ml and more than 2 fold higher than reactivity versus T2 cells pulsed with the negative control HIV-nef190-198 peptide) |  |  |  | 
TEM1: TEM1-derived peptide 691-700 pulsed onto DC or DC.IL12 (LLVPTCVFLV; listed as Homo sapiens) | + (Human responses were designated as + if T cell reactivity against T2 cells presenting the indicated peptide (IFN-γ ELISA) was >30 pg/ml and more than 2 fold higher than reactivity versus T2 cells pulsed with the negative control HIV-nef190-198 peptide) |  |  | + (Human responses were designated as + if T cell reactivity against T2 cells presenting the indicated peptide (IFN-γ ELISA) was >30 pg/ml and more than 2 fold higher than reactivity versus T2 cells pulsed with the negative control HIV-nef190-198 peptide) |  |  | + (Human responses were designated as + if T cell reactivity against T2 cells presenting the indicated peptide (IFN-γ ELISA) was >30 pg/ml and more than 2 fold higher than reactivity versus T2 cells pulsed with the negative control HIV-nef190-198 peptide) | + (Human responses were designated as + if T cell reactivity against T2 cells presenting the indicated peptide (IFN-γ ELISA) was >30 pg/ml and more than 2 fold higher than reactivity versus T2 cells pulsed with the negative control HIV-nef190-198 peptide) | + (Human responses were designated as + if T cell reactivity against T2 cells presenting the indicated peptide (IFN-γ ELISA) was >30 pg/ml and more than 2 fold higher than reactivity versus T2 cells pulsed with the negative control HIV-nef190-198 peptide) | + (Human responses were designated as + if T cell reactivity against T2 cells presenting the indicated peptide (IFN-γ ELISA) was >30 pg/ml and more than 2 fold higher than reactivity versus T2 cells pulsed with the negative control HIV-nef190-198 peptide) | + (Human responses were designated as + if T cell reactivity against T2 cells presenting the indicated peptide (IFN-γ ELISA) was >30 pg/ml and more than 2 fold higher than reactivity versus T2 cells pulsed with the negative control HIV-nef190-198 peptide) | + (Human responses were designated as + if T cell reactivity against T2 cells presenting the indicated peptide (IFN-γ ELISA) was >30 pg/ml and more than 2 fold higher than reactivity versus T2 cells pulsed with the negative control HIV-nef190-198 peptide)
RGS5: RGS5-derived peptide 5-13 pulsed onto DC or DC.IL12 (LAALPHSCL; listed as Homo sapiens) | + (Human responses were designated as + if T cell reactivity against T2 cells presenting the indicated peptide (IFN-γ ELISA) was >30 pg/ml and more than 2 fold higher than reactivity versus T2 cells pulsed with the negative control HIV-nef190-198 peptide) | + (Human responses were designated as + if T cell reactivity against T2 cells presenting the indicated peptide (IFN-γ ELISA) was >30 pg/ml and more than 2 fold higher than reactivity versus T2 cells pulsed with the negative control HIV-nef190-198 peptide) |  | + (Human responses were designated as + if T cell reactivity against T2 cells presenting the indicated peptide (IFN-γ ELISA) was >30 pg/ml and more than 2 fold higher than reactivity versus T2 cells pulsed with the negative control HIV-nef190-198 peptide) | + (Human responses were designated as + if T cell reactivity against T2 cells presenting the indicated peptide (IFN-γ ELISA) was >30 pg/ml and more than 2 fold higher than reactivity versus T2 cells pulsed with the negative control HIV-nef190-198 peptide) |  |  |  |  | + (Human responses were designated as + if T cell reactivity against T2 cells presenting the indicated peptide (IFN-γ ELISA) was >30 pg/ml and more than 2 fold higher than reactivity versus T2 cells pulsed with the negative control HIV-nef190-198 peptide) |  | 
